The source of these data is patent US12162858B2, “Quinoline derivatives as inhibitors of AXL/MER RTK and CSF1R” (QURIENT CO., LTD., priority 2018, dated 2024).

The assay concerns the target T1, Mer (Homo sapiens, UniProt Q12866).
T1 construct: purchased Life Technologies
T1 sequence (Q12866 21-999): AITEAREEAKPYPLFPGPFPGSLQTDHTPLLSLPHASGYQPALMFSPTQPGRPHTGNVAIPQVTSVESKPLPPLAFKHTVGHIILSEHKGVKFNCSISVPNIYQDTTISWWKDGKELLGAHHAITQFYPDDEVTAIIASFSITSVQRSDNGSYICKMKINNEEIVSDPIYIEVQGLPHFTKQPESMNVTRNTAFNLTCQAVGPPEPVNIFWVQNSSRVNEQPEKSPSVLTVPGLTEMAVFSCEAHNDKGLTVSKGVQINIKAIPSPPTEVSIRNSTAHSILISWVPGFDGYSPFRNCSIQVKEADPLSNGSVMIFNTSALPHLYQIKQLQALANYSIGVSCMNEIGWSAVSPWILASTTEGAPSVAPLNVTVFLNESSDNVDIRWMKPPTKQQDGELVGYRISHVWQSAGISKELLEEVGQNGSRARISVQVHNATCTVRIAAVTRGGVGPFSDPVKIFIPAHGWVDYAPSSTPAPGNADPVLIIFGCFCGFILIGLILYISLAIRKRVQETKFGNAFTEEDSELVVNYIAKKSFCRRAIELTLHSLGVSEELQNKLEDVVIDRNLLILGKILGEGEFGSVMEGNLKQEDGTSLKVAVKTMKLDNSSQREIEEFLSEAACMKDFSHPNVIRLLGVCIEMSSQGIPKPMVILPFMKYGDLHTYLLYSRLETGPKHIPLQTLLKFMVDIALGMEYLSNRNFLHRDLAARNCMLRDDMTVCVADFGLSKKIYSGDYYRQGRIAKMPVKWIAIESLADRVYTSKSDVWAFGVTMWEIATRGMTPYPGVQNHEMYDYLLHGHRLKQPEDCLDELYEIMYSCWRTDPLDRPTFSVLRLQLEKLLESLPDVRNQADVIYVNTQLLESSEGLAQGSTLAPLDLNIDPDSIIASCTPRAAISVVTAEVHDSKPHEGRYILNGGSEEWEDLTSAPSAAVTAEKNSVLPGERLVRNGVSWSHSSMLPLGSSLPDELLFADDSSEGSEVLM
Kind of assay: LanthaScreen Eu kinase binding assay for Mer. The settings on record: read-out: Mer kinase binding activity (Kd). An outline of the steps:
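Kd values come from control-normalized FRET loss, referenced to DMSO vehicle wells, after 1 h at room temperature. Each compound was serially diluted over eight steps in DMSO and competed against Tracer 236 (Alexa Fluor 647) for the kinase, which was tagged by a Eu anti-GST antibody.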
(In TR-FRET formats the signal depends on donor and acceptor labels being close together.)

Each structure is given as a SMILES string.

With `COc1cc2nccc(Oc3ccc(NC(=O)c4nn(C5CC5)cc4OCC(F)(F)F)nc3)c2cc1OC` [Compound 5], the Kd is under 100 nM.

Regarding `COc1cc2nccc(Oc3ccc(NC(=O)c4nn(C5CCOC5)cc4OCC(F)(F)F)c(F)c3)c2cc1OC` (stereo not shown) [Compound 77], the equilibrium dissociation constant (Kd) is under 100 nM.

In the case of `COc1cc2nccc(Oc3ccc(NC(=O)c4nn(C5CCNC5)cc4OCC(F)(F)F)cc3F)c2cc1OC` (stereo not shown) [Compound 78], the Kd was 100 to 500 nM.

Consider `COc1cc2nccc(Oc3ccc(NC(=O)c4nn(CCN)cc4OCC(F)(F)F)cc3F)c2cc1OC` [Compound 79], for which the equilibrium dissociation constant (Kd) was under 100 nM.

As to `COc1cc2nccc(Oc3ccc(NC(=O)c4nn(CC(C)O)cc4OCC(F)(F)F)cc3F)c2cc1OC` (stereo not shown) [Compound 80], the equilibrium dissociation constant (Kd) is under 100 nM.

As to `COc1cc2nccc(Oc3ccc(NC(=O)c4nn(C5CCNC5)cc4OCC(F)(F)F)cc3C)c2cc1OC` (stereo not shown) [Compound 81], the Kd is 100 to 500 nM.

As to `COc1cc2nccc(Oc3ccc(NC(=O)c4nn(CCN)cc4OCC(F)(F)F)cc3C)c2cc1OC` [Compound 82], the equilibrium dissociation constant (Kd) was in the range of 100 to 500 nM.

As for `COc1cc2nccc(Oc3ccc(NC(=O)c4nn(CC(C)O)cc4OCC(F)(F)F)cc3C)c2cc1OC` (stereo not shown) [Compound 83], the Kd was under 100 nM.

For `COCCn1cc(OCC(F)(F)F)c(C(=O)Nc2ccc(Oc3ccnc4cc(OC)c(OC)cc34)c(C)c2)n1` [Compound 84], the dissociation constant Kd was under 100 nM.

Consider `COc1cc2nccc(Oc3ccc(NC(=O)c4nn(C5CCOC5)cc4OCC(F)(F)F)cc3C)c2cc1OC` (stereo not shown) [Compound 85], for which the dissociation constant (Kd) was under 100 nM.

For `COc1cc2nccc(Oc3ccc(NC(=O)c4nn(C5CCNC5)cc4OCC(F)(F)F)cc3)c2cc1OC` (stereo not shown) [Compound 86], the Kd lay within 100 to 500 nM.

With `COc1cc2nccc(Oc3ccc(NC(=O)c4nn(CC(C)C)cc4OCC(F)(F)F)cc3)c2cc1OC` [Compound 87], the dissociation constant Kd was under 100 nM.

Turning to `COc1cc2nccc(Oc3ccc(NC(=O)c4nn(CCN)cc4OCC(F)(F)F)cc3)c2cc1OC` [Compound 88], the Kd was 100 to 500 nM.

In the case of `COc1cc2nccc(Oc3ccc(NC(=O)c4nn(CC(C)O)cc4OCC(F)(F)F)cc3)c2cc1OC` (stereo not shown) [Compound 89], the dissociation constant (Kd) was under 100 nM.

Take `COc1cc2nccc(Oc3ccc(NC(=O)c4nn(C5CCOCC5)cc4OCC(F)(F)F)nc3)c2cc1OC` [Compound 90]: the Kd is under 100 nM.

For the compound `COc1cc2nccc(Oc3ccc(NC(=O)c4nn(C5CCN(C)C5)cc4OCC(F)(F)F)nc3)c2cc1OC` (stereo not shown) [Compound 91], the Kd was under 100 nM.

`COc1cc2nccc(Oc3ccc(NC(=O)c4nn(CCC5CCCC5)cc4OCC(F)(F)F)nc3)c2cc1OC` [Compound 93]: the Kd is under 100 nM.

Take `COc1cc2nccc(Oc3ccc(NC(=O)c4nn(C5CCN(C)C5)cc4OCC(F)(F)F)c(F)c3)c2cc1OC` (stereo not shown) [Compound 94]: the Kd is under 100 nM.

For `COc1cc2nccc(Oc3ccc(NC(=O)c4nn(CC5COC5)cc4OCC(F)(F)F)c(F)c3)c2cc1OC` [Compound 95], the Kd was under 100 nM.

For orientation: Kd means a measure of binding affinity in units of concentration.
